The results in this text go back to US20090130033A1, “Dendrimer-Aminobuadiene-Based Uv Screens” (priority 2004, published 2009).

The data set can be described thus: Absorption maximum of aminobutadienes in methanol (or ethanol). Format: physicochemical. Particulars: in methanol (or ethanol when not soluble in methanol). The text has this: The aminobutadiene according to the present invention has the general formula (I) disclosed above. A preferred class of aminobutadienes is that in which R3 represents —COOH, —COOR5, —COR5 or SO2R5 and R4 represents a carboxyl group, —COOR6, —COR6 or —SO2R6, wherein R1, R2, R5 and R6 have the meanings indicated above. Examples of aminobutadienes according to the general formula (I) are for example disclosed in U.S. Pat. No. 4,195,999. Table 1 lists a number of aminobutadienes according to the present invention which can be coupled to an amine rich polymer, including their absorption maxima in methanol (or ethanol when not soluble in methanol).

Regarding `CCCCC(CC)COC(=O)/C(=C\C=C\N1CCCCC1)C(C)=O` (stereo not shown) [2.3], the Absorption maximum turned out to be 395 nm.
